# “And” between values parts separate entries of the source, which are not always exact repeats. Identical values can stand only once.
# System: Severe Acute Respiratory Syndrome-Associated Coronavirus (SARS-CoV-1) Urbani strain
# Set-up: species or system BALB/C mice
# Details: in vivo
substance,measurement,setting,value
polyinosinic: polycytidylic acid,relative efficacy in reducing viral load in mouse lung (in words),,lower viral titers at the 3-day mark
same,order of efficacy by percent reduction in viral load,mouse,H>G>F>A>D>B=C>I>J>E
same,virtual linear slope of viral reduction beyond 5 days post exposure: day mark at which it converged,mouse,7 days
same,Lung virus titer,"mouse, ip, 10 mg/kg/day",7.2 CC ID/50 (Log 10) and 7.0 CC ID/50 (Log 10) and 6.5 CC ID/50 (Log 10) and 6.0 CC ID/50 (Log 10) and 6.2 CC ID/50 (Log 10)
same,percent reduction in viral load,"mouse, ip, 10 mg/kg/day",11.8%
